In PubChem BioAssay (NCI):
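48-hour exposure; five concentrations; linearly interpolated endpoints. At the GI50, growth is halved. The concentration for full growth arrest is given as TGI.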

Tests used:
Experiment in all cases: NCI-60 cell line screen, 48 h
PC-3 prostate = system: PC-3 prostate
U251 CNS = system: U251 CNS
IGROV1 ovarian = system: IGROV1 ovarian
SK-MEL-2 melanoma = system: SK-MEL-2 melanoma
A549 NSCLC = system: A549 NSCLC
EKVX NSCLC = system: EKVX NSCLC
SN12C renal = system: SN12C renal
DU-145 prostate = system: DU-145 prostate
SF-268 CNS = system: SF-268 CNS
OVCAR-5 ovarian = system: OVCAR-5 ovarian
HL-60(TB) leukemia = system: HL-60(TB) leukemia
HS 578T breast = system: HS 578T breast
NCI-H226 lung = system: NCI-H226 lung
786-0 renal = system: 786-0 renal
NCI-H460 lung = system: NCI-H460 lung
MDA-MB-468 breast = system: MDA-MB-468 breast
NCI-H23 lung = system: NCI-H23 lung
OVCAR-4 ovarian = system: OVCAR-4 ovarian
UACC-257 melanoma = system: UACC-257 melanoma
M14 melanoma = system: M14 melanoma
UACC-62 melanoma = system: UACC-62 melanoma
SK-OV-3 ovarian = system: SK-OV-3 ovarian
SF-539 CNS = system: SF-539 CNS
SNB-75 CNS = system: SNB-75 CNS
SK-MEL-28 melanoma = system: SK-MEL-28 melanoma
HOP-92 NSCLC = system: HOP-92 NSCLC
MALME-3M melanoma = system: MALME-3M melanoma
CAKI-1 renal = system: CAKI-1 renal
SNB-19 CNS = system: SNB-19 CNS

SMILES: Cc1nc(Nc2nc(C)c3ccc(OCCN4CCOCC4)cc3n2)[nH]c(=O)c1C
- GI50 (PC-3 prostate): 4.04 µM
- TGI (PC-3 prostate): 27 µM
- GI50 (U251 CNS): 4.16 µM
- TGI (U251 CNS): 51.4 µM
- GI50 (IGROV1 ovarian): 3.1 µM
- TGI (IGROV1 ovarian): 12.6 µM
- GI50 (SK-MEL-2 melanoma): 2.03 µM
- TGI (SK-MEL-2 melanoma): 5.13 µM
- GI50 (A549 NSCLC): 3.37 µM
- TGI (A549 NSCLC): 15.4 µM
- GI50 (EKVX NSCLC): 4.15 µM
- TGI (EKVX NSCLC): 26.7 µM
- GI50 (SN12C renal): 3.46 µM
- TGI (SN12C renal): 19.5 µM
- GI50 (DU-145 prostate): 2.94 µM
- TGI (DU-145 prostate): 9.03 µM
- GI50 (SF-268 CNS): 3.58 µM
- TGI (SF-268 CNS): 19 µM
- GI50 (OVCAR-5 ovarian): 4.22 µM
- TGI (OVCAR-5 ovarian): 27.5 µM
- GI50 (HL-60(TB) leukemia): 2.27 µM
- TGI (HL-60(TB) leukemia): 6.83 µM
- GI50 (HS 578T breast): 3.79 µM
- TGI (HS 578T breast): 23.6 µM
- GI50 (NCI-H226 lung): 2.86 µM
- TGI (NCI-H226 lung): 11.1 µM
- GI50 (786-0 renal): 3.75 µM
- TGI (786-0 renal): 18.2 µM
- GI50 (NCI-H460 lung): 2.94 µM
- TGI (NCI-H460 lung): 9.12 µM
- GI50 (MDA-MB-468 breast): 1.72 µM
- TGI (MDA-MB-468 breast): 3.8 µM
- GI50 (NCI-H23 lung): 2.53 µM
- TGI (NCI-H23 lung): 5.91 µM
- GI50 (OVCAR-4 ovarian): 2.54 µM
- TGI (OVCAR-4 ovarian): 7.74 µM
- GI50 (UACC-257 melanoma): 4.03 µM
- TGI (UACC-257 melanoma): 25.9 µM
- GI50 (M14 melanoma): 4.36 µM
- TGI (M14 melanoma): 17.4 µM
- GI50 (UACC-62 melanoma): 2.56 µM
- TGI (UACC-62 melanoma): 8.19 µM
- GI50 (SK-OV-3 ovarian): 4.67 µM
- TGI (SK-OV-3 ovarian): 24.8 µM
- GI50 (SF-539 CNS): 2.82 µM
- TGI (SF-539 CNS): 8.86 µM
- GI50 (SNB-75 CNS): 1.92 µM
- TGI (SNB-75 CNS): 8.83 µM
- GI50 (SK-MEL-28 melanoma): 3.64 µM
- TGI (SK-MEL-28 melanoma): 14.3 µM
- GI50 (HOP-92 NSCLC): 2.91 µM
- TGI (HOP-92 NSCLC): 9.9 µM
- GI50 (MALME-3M melanoma): 2.38 µM
- TGI (MALME-3M melanoma): 9.06 µM
- GI50 (CAKI-1 renal): 3.66 µM
- TGI (CAKI-1 renal): 24.2 µM
- GI50 (SNB-19 CNS): 4.66 µM
- TGI (SNB-19 CNS): 24.6 µM
